According to publication PMC10764104, “Discovery of Molecular Glue Degraders via Isogenic Morphological Profiling” (ACS Chemical Biology, 2023):

Tested on: RKO WT
Test: Quantitative expression proteomics to identify degradation targets
Format: cell-based, human
Details: 10 μM, 16 h, n = 2, and adjusted p < 0.01, over 8000 proteins quantified
Source text: We selected FL2-14 for target elucidation (circled in black in Figure 2E) based on three criteria (Table S4). First, FL2-14 has low cosine similarity with all of the CRBN-dependent controls (i.e., no thick blue edges). […] Third, it has a unique chemical structure, being the only CRBN binder with the tail group modification 14 predicted to have CRBN-dependent bioactivity (Figure 3A). To elucidate the target for FL2-14, we performed quantitative proteomics to evaluate changes in protein abundances upon treatment with FL2-14. […]
Figure 3 FL2-14 is a selective GSPT2 molecular glue degrader. […] (B) DMSO-normalized quantitative proteomics after 16 h of treatment with FL2-14 (10 μM) in RKO WT (n = 2). […]
of the sample sizes of (i.e. number of images in) RKO CRBN OE and RKO CRBN KO data. We, thus, normalized the U scores calculated to allow us to compare U scores for different treatments with varying sample sizes: […]
Comparing the treatment‐centric features of compounds predicted to have CRBN‐dependent bioactivity. […] We then retrieve the matrix of Kendall’s τ‐b correlation coefficients calculated per feature for each compound. […]
We then visualized the cosine similarities calculated on a network graph with NetworkX (https://networkx.org, version 3.1), using the spring_layout() with seed set to 500 and iterations set to 200. […]

SMILES: CN(Cc1ncc(C2CC2)o1)S(=O)(=O)Oc1ccc(Nc2ccc3c(c2)C(=O)N(C2CCC(=O)NC2=O)C3=O)cc1 (stereo not shown) [FL2-14]
- proteins significantly downregulated (quantitative proteomics): GSPT2, FAM83F, and ZBTB39
